Measured values: PubChem BioAssay AID328 (DTP/NCI, 2004)
Several values for one entry are separate records, joined by “and”; a condition that tells them apart may be missing. Equal entries are not always repeated. Inconclusive results and toxic doses are left out.

Test system: BDF1 mice, P388 leukemia ip, median survival T/C
Experiment: NCI In Vivo Anticancer Drug Screen. Data for tumor model P388 Leukemia (intraperitoneal) in B6D2F1 (BDF1) mice
Details: endpoint: median survival time, higher = longer survival
Procedure, shortened: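 Mice carrying the transplantable tumour receive compound or vehicle. Survival is followed in each arm, and the treated measure is divided by the vehicle measure.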

[1] = dose: 100.0 mg/kg/injection, schedule: Q04DX003 (ip), vehicle: saline
[2] = dose: 200.0 mg/kg/injection, schedule: Q04DX003 (ip), vehicle: saline
[3] = dose: 400.0 mg/kg/injection, schedule: Q04DX003 (ip), vehicle: saline
[4] = dose: 100.0 mg/kg/injection, schedule: Q01DX009 (ip), vehicle: saline
[5] = dose: 25.0 mg/kg/injection, schedule: Q01DX009 (ip), vehicle: saline
[6] = dose: 50.0 mg/kg/injection, schedule: Q01DX009 (ip), vehicle: saline
[7] = dose: 200.0 mg/kg/injection, schedule: Q01DX009 (ip), vehicle: saline

CCCCC1C(=O)OC(C(C)C(O)CCCN=C(N)N)C(C)C=C(C)CCCCC(O)CC(O)CC(O)CC(O)CC(O)C(OC2OC(CO)C(O)C2O)C=C(C)C(O)CCCC(O)CCCC(O)CCC(C)C1O (stereo not drawn)
T/C (dose: 0.3 mg/kg/injection, schedule: Q01DX010 (ip), vehicle: carboxymethylcellulose (CMC)): 90 % of control | T/C (dose: 0.6 mg/kg/injection, schedule: Q01DX010 (ip), vehicle: carboxymethylcellulose (CMC)): 90 % of control | T/C (dose: 1.2 mg/kg/injection, schedule: Q01DX010 (ip), vehicle: carboxymethylcellulose (CMC)): 95 % of control | T/C (dose: 2.5 mg/kg/injection, schedule: Q01DX010 (ip), vehicle: carboxymethylcellulose (CMC)): 90 % of control

C[Si](C)(C)C1([Si](C)(C)C)CO1
T/C [1]: 108 % of control | T/C [2]: 109 % of control | T/C [3]: 108 % of control

CCC1C(=O)NC(=O)C1(C)c1ccccc1 (stereo not drawn)
T/C (dose: 50.0 mg/kg/injection, schedule: Q01DX009 (ip), vehicle: saline with Tween-80): 191 % of control | T/C (dose: 100.0 mg/kg/injection, schedule: Q01DX009 (ip), vehicle: saline with Tween-80): 122 % of control | T/C (dose: 200.0 mg/kg/injection, schedule: Q01DX009 (ip), vehicle: saline with Tween-80): 120 % of control

CCOC1OCN(C)CC1(C)C (stereo not drawn)
T/C (dose: 12.5 mg/kg/injection, schedule: Q01DX009 (ip), vehicle: saline with Tween-80): 115 % of control | T/C (dose: 25.0 mg/kg/injection, schedule: Q01DX009 (ip), vehicle: saline with Tween-80): 120 % of control | T/C (dose: 66.0 mg/kg/injection, schedule: Q01DX009 (ip), vehicle: saline): 115 % of control | T/C [4]: 119 % of control | T/C (dose: 150.0 mg/kg/injection, schedule: Q01DX009 (ip), vehicle: saline): 154 % of control

CCOC(=O)C(Cc1ccc(N(CCCl)CCCl)cc1)NC(=O)CNC(C)=O (stereo not drawn)
T/C (dose: 12.5 mg/kg/injection, schedule: Q04DX003 (ip), vehicle: saline with Tween-80): 177 % of control | T/C (dose: 25.0 mg/kg/injection, schedule: Q04DX003 (ip), vehicle: saline with Tween-80): 200 % of control | T/C (dose: 33.0 mg/kg/injection, schedule: Q04DX003 (ip), vehicle: saline with Tween-80): 280 % of control and 218 % of control | T/C (dose: 50.0 mg/kg/injection, schedule: Q04DX003 (ip), vehicle: saline with Tween-80): 259 % of control and 272 % of control and 170 % of control | T/C (dose: 75.0 mg/kg/injection, schedule: Q04DX003 (ip), vehicle: saline with Tween-80): 204 % of control

OC(COC(c1ccccc1)(c1ccccc1)c1ccccc1)C(O)CC1SCCS1 (stereo not drawn)
T/C (dose: 100.0 mg/kg/injection, schedule: Q01DX009 (ip), vehicle: saline sonified): 100 % of control | T/C (dose: 100.0 mg/kg/injection, schedule: Q04DX003 (ip), vehicle: saline sonified): 112 % of control | T/C (dose: 200.0 mg/kg/injection, schedule: Q01DX009 (ip), vehicle: saline sonified): 110 % of control | T/C (dose: 200.0 mg/kg/injection, schedule: Q04DX003 (ip), vehicle: saline sonified): 100 % of control | T/C (dose: 400.0 mg/kg/injection, schedule: Q01DX009 (ip), vehicle: saline sonified): 95 % of control | T/C (dose: 400.0 mg/kg/injection, schedule: Q04DX003 (ip), vehicle: saline sonified): 108 % of control

O/N=C\c1c(O)ccc2ccccc12
T/C (dose: 100.0 mg/kg/injection, schedule: Q01DX001 (ip), vehicle: saline with Tween-80): 106 % of control | T/C (dose: 200.0 mg/kg/injection, schedule: Q01DX001 (ip), vehicle: saline with Tween-80): 105 % of control | T/C (dose: 400.0 mg/kg/injection, schedule: Q01DX001 (ip), vehicle: saline with Tween-80): 106 % of control

Nc1ccn(C2OC(CO)C(O)C2O)c(=O)c1 (stereo not drawn)
T/C [5]: 93 % of control | T/C [6]: 95 % of control | T/C [4]: 112 % of control | T/C [7]: 102 % of control

O=Nc1ccc(O)c2ncccc12
T/C (dose: 50.0 mg/kg/injection, schedule: Q01DX001 (ip), vehicle: Klucel (hydroxypropylcellulose) (HPC)): 118 % of control

O=S(=O)(O)C1(O)CCCCC1
T/C [4]: 105 % of control | T/C (dose: 100.0 mg/kg/injection, schedule: Q04DX003 (ip), vehicle: saline with Tween-80): 95 % of control | T/C [1]: 109 % of control | T/C [7]: 100 % of control | T/C (dose: 200.0 mg/kg/injection, schedule: Q04DX003 (ip), vehicle: saline with Tween-80): 104 % of control | T/C [2]: 104 % of control | T/C (dose: 400.0 mg/kg/injection, schedule: Q01DX009 (ip), vehicle: saline): 105 % of control | T/C (dose: 400.0 mg/kg/injection, schedule: Q04DX003 (ip), vehicle: saline with Tween-80): 100 % of control | T/C [3]: 100 % of control

COc1ccccc1CN1CCCN(Cc2ccccc2OC)C1c1ccc(N(CCCl)CCCl)cc1C
T/C (dose: 65.0 mg/kg/injection, schedule: Q01DX009 (ip), vehicle: Klucel (hydroxypropylcellulose) (HPC)): 95 % of control | T/C (dose: 100.0 mg/kg/injection, schedule: Q01DX009 (ip), vehicle: Klucel (hydroxypropylcellulose) (HPC)): 109 % of control

CCOC(=O)c1c(C)nc(C)c(C(=O)OCC)c1-c1cccnc1
T/C (dose: 12.5 mg/kg/injection, schedule: Q01DX009 (ip), vehicle: other): 101 % of control | T/C (dose: 25.0 mg/kg/injection, schedule: Q01DX009 (ip), vehicle: other): 100 % of control | T/C (dose: 50.0 mg/kg/injection, schedule: Q01DX009 (ip), vehicle: other): 100 % of control | T/C (dose: 100.0 mg/kg/injection, schedule: Q01DX009 (ip), vehicle: other): 110 % of control | T/C (dose: 200.0 mg/kg/injection, schedule: Q01DX009 (ip), vehicle: other): 112 % of control

CNC1=C(N2CC2)C(=O)C(NC)=C(N2CC2)C1=O
T/C (dose: 0.05 mg/kg/injection, schedule: Q01DX009 (ip), vehicle: saline): 159 % of control | T/C (dose: 0.1 mg/kg/injection, schedule: Q01DX009 (ip), vehicle: saline): 151 % of control and 169 % of control | T/C (dose: 0.2 mg/kg/injection, schedule: Q01DX009 (ip), vehicle: saline): 195 % of control

Cc1ccc(NS(=O)(=O)c2ccc(F)cc2)c(C)c1
T/C (dose: 100.0 mg/kg/injection, schedule: Q04DX003 (ip), vehicle: Klucel (hydroxypropylcellulose) (HPC)): 100 % of control | T/C (dose: 200.0 mg/kg/injection, schedule: Q04DX003 (ip), vehicle: Klucel (hydroxypropylcellulose) (HPC)): 100 % of control | T/C (dose: 400.0 mg/kg/injection, schedule: Q04DX003 (ip), vehicle: Klucel (hydroxypropylcellulose) (HPC)): 100 % of control

CC1(O)CC(=O)c2c(ccc3c2C(=O)c2cccc(O)c2C3=O)C1 (stereo not drawn)
T/C (dose: 0.5 mg/kg/injection, schedule: Q01DX009 (ip), vehicle: Klucel (hydroxypropylcellulose) (HPC)): 101 % of control | T/C (dose: 1.0 mg/kg/injection, schedule: Q01DX009 (ip), vehicle: Klucel (hydroxypropylcellulose) (HPC)): 101 % of control | T/C (dose: 2.0 mg/kg/injection, schedule: Q01DX009 (ip), vehicle: Klucel (hydroxypropylcellulose) (HPC)): 109 % of control | T/C (dose: 4.0 mg/kg/injection, schedule: Q01DX009 (ip), vehicle: Klucel (hydroxypropylcellulose) (HPC)): 111 % of control

COc1cccc2c1C(=O)c1c(O)c3c(c(O)c1C2=O)C[C@@](O)(C(=O)COC(=O)c1cccnc1)C[C@@H]3OC1CC(N)C(O)C(C)O1 (stereo partly drawn)
T/C (dose: 1.32 mg/kg/injection, schedule: Q01DX009 (ip), vehicle: saline): 195 % of control | T/C (dose: 2.0 mg/kg/injection, schedule: Q01DX009 (ip), vehicle: saline): 237 % of control

C#CCOCC(O)CO (stereo not drawn)
T/C (dose: 6.25 mg/kg/injection, schedule: Q01DX009 (ip), vehicle: water): 88 % of control | T/C (dose: 12.5 mg/kg/injection, schedule: Q01DX009 (ip), vehicle: water): 106 % of control | T/C (dose: 12.5 mg/kg/injection, schedule: Q04DX003 (ip), vehicle: water): 93 % of control | T/C (dose: 25.0 mg/kg/injection, schedule: Q01DX009 (ip), vehicle: water): 117 % of control | T/C (dose: 25.0 mg/kg/injection, schedule: Q04DX003 (ip), vehicle: water): 111 % of control | T/C (dose: 50.0 mg/kg/injection, schedule: Q01DX009 (ip), vehicle: water): 117 % of control and 123 % of control | T/C (dose: 50.0 mg/kg/injection, schedule: Q04DX003 (ip), vehicle: water): 95 % of control | T/C (dose: 100.0 mg/kg/injection, schedule: Q01DX009 (ip), vehicle: water): 95 % of control and 122 % of control | T/C (dose: 100.0 mg/kg/injection, schedule: Q04DX003 (ip), vehicle: water): 98 % of control | T/C (dose: 200.0 mg/kg/injection, schedule: Q01DX009 (ip), vehicle: water): 110 % of control

COc1cc2ccc3c[n+]4ccccc4cc3c2cc1OC
T/C (dose: 25.0 mg/kg/injection, schedule: Q01DX009 (ip), vehicle: Klucel (hydroxypropylcellulose) (HPC)): 102 % of control | T/C [5]: 112 % of control | T/C (dose: 50.0 mg/kg/injection, schedule: Q01DX009 (ip), vehicle: Klucel (hydroxypropylcellulose) (HPC)): 116 % of control | T/C [6]: 117 % of control | T/C [4]: 114 % of control | T/C (dose: 150.0 mg/kg/injection, schedule: Q01DX009 (ip), vehicle: Klucel (hydroxypropylcellulose) (HPC)): 118 % of control
